From ChEMBL document CHEMBL1255551, “Synthesis and biological evaluation of C-2 halogenated analogs of salvinorin A” (Bioorg Med Chem Lett, 2010)
Calls of active or inactive are those of the source. The rule behind the calls is not given here.

Legend:
[1] = target: Mu-type opioid receptor (Rattus norvegicus) (UniProt P33535); test: Displacement of [3H]diprenorphine from rat mu opioid receptor expressed in CHO cells at 3 uM; assay type: cell-based
[2] = target: T1, Kappa-type opioid receptor (Homo sapiens, UniProt P41145); test: Displacement of [3H]diprenorphine from human kappa opioid receptor expressed in CHO cells; assay type: cell-based
T1 sequence (P41145 whole entry): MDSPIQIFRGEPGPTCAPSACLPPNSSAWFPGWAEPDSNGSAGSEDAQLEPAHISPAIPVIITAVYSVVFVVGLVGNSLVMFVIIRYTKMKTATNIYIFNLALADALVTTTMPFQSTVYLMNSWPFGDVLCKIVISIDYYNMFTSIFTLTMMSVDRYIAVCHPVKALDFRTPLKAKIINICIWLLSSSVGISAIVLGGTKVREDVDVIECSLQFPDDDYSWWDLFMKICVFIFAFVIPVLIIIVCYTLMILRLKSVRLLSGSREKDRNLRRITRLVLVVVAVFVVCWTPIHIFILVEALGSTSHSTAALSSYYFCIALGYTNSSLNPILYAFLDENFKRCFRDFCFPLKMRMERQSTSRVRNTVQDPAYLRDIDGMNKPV

[3] = target: T1, Kappa-type opioid receptor; test: Agonist activity at human kappa opioid receptor expressed in CHO cells assessed as increase of [35S]GTPgammaS binding at 240 nM relative to U50488H; assay type: functional, cell-based
[4] = target: T1, Kappa-type opioid receptor; test: Displacement of [3H]diprenorphine from human kappa opioid receptor expressed in CHO cells at 3 uM; assay type: cell-based
[5] = target: Delta-type opioid receptor (Mus musculus) (UniProt P32300); test: Displacement of [3H]diprenorphine from mouse FLAG-tagged delta opioid receptor expressed in CHO cells at 3 uM; assay type: cell-based
Sequence of Delta-type opioid receptor (Mus musculus) (P32300 whole entry): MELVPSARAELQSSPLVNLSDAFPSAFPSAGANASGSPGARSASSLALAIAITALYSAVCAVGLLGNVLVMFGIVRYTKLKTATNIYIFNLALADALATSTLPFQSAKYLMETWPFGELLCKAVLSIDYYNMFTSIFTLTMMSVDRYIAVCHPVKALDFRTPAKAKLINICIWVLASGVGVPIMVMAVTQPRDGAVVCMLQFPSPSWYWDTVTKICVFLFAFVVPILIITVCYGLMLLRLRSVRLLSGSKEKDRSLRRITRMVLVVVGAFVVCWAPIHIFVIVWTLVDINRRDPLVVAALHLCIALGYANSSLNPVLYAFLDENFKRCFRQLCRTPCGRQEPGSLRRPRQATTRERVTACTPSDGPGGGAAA

[6] = target: T1, Kappa-type opioid receptor; test: Agonist activity at human kappa opioid receptor expressed in CHO cells assessed as increase of [35S]GTPgammaS binding; assay type: functional, cell-based

Sequence of Mu-type opioid receptor (Rattus norvegicus) (P33535 whole entry): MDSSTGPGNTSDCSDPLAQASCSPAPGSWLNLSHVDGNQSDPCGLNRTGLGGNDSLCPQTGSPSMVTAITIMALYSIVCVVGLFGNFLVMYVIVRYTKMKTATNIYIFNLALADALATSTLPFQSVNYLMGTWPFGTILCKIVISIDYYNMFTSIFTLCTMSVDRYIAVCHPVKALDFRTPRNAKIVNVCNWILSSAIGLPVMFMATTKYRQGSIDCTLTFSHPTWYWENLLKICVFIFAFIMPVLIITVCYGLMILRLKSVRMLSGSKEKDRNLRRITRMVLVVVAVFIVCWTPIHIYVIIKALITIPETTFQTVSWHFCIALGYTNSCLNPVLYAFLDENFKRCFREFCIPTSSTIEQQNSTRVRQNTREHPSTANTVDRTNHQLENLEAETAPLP

SMILES	Activity [1]	Ki [2] [nM]	Emax [3] [%]	inhibition [4] [%]	Activity [5]	EC50 [6] [nM]
COC(=O)[C@@H]1C[C@@H](F)C(=O)[C@H]2[C@@]1(C)CC[C@H]1C(=O)O[C@H](c3ccoc3)C[C@]21C	inactive	197	77	> 50	inactive	539
COC(=O)[C@@H]1CC(C(=O)O)C(=O)[C@H]2[C@@]1(C)CC[C@H]1C(=O)O[C@H](c3ccoc3)C[C@]21C (stereo partly drawn)	inactive	24.3	103	> 50	inactive	83.3
COC(=O)[C@@H]1C[C@H](F)C(=O)[C@H]2[C@@]1(C)CC[C@H]1C(=O)O[C@H](c3ccoc3)C[C@]21C	inactive	> 1000		> 50	inactive	
COC(=O)[C@@H]1C[C@@H](I)C(=O)[C@H]2[C@@]1(C)CC[C@H]1C(=O)O[C@H](c3ccoc3)C[C@]21C	inactive	245	46	> 50	inactive	239
COC(=O)[C@@H]1C[C@H](OC(C)=O)C(=O)[C@H]2[C@@]1(C)CC[C@H]1C(=O)O[C@H](c3ccoc3)C[C@]21C	inactive			> 50	inactive	
COC(=O)[C@@H]1C[C@@H](Br)C(=O)[C@H]2[C@@]1(C)CC[C@H]1C(=O)O[C@H](c3ccoc3)C[C@]21C	inactive	42.3	90	> 50	inactive	282
COC(=O)[C@@H]1C[C@H](Br)C(=O)[C@H]2[C@@]1(C)CC[C@H]1C(=O)O[C@H](c3ccoc3)C[C@]21C	inactive	422	87	> 50	inactive	1970
COC(=O)[C@@H]1C[C@@H](Br)C2=C3[C@@](C)(C[C@H](c4ccoc4)O2)C(C(=O)O)CC[C@]31C (stereo partly drawn)	inactive	> 1000		> 50	inactive	
COC(=O)[C@@H]1CCC(=O)[C@H]2[C@@]1(C)CC[C@H]1C(=O)O[C@H](c3ccoc3)C[C@]21C	inactive	51.6	124	> 50	inactive	266
COC(=O)[C@@H]1C[C@@H](Cl)C(=O)[C@H]2[C@@]1(C)CC[C@H]1C(=O)O[C@H](c3ccoc3)C[C@]21C	inactive	167	112	> 50	inactive	673
COC(=O)[C@@H]1C[C@H](Cl)C(=O)[C@H]2[C@@]1(C)CC[C@H]1C(=O)O[C@H](c3ccoc3)C[C@]21C	inactive	> 1000		> 50	inactive	
COC(=O)[C@@H]1C[C@H](I)C(=O)[C@H]2[C@@]1(C)CC[C@H]1C(=O)O[C@H](c3ccoc3)C[C@]21C	inactive	198	92	> 50	inactive	648
